Values after ≈ are worked out from the molar mass of the structure shown. Like-named read-outs stand apart in the source and are kept apart here.
Experiments:
A. baumannii = format: cell-based; conditions: for Folds: with vs w/o albumin
Experimental: (§1) To assess antimicrobial activity of PLP3 in a physiological relevant environment, MICs were performed at physiological human albumin concentrations. To this end, Mueller-Hinton broth (MHB) was supplemented with 40 mg/mL human albumin (A1653-5G, Merck) and broth microdilution protocol was used. SEQ ID NO: 4 (PLP-3) and colistin stocks were prepared both in MHB and albumin supplemented MHB. These were used for comparison of MICs in the presence or absence of albumin, and as a control.

P. aeruginosa = format: cell-based; conditions: for Folds: with vs w/o albumin
Experimental: as §1

With `CC(C)C[C@@H]1NC(=O)[C@H](CCCNC(=N)N)NC(=O)[C@H](CCCNC(=N)N)NC(=O)[C@H](CCCNC(=N)N)NC(=O)[C@H]2CCCN2C(=O)[C@H](CCCNC(=N)N)NC(=O)[C@H](CCCNC(=N)N)NC(=O)[C@H](C(C)C)NC(=O)[C@@H]2CSSC[C@H](NC1=O)C(=O)N[C@@H](Cc1ccccc1)C(=O)N[C@@H](C(C)C)C(=O)N[C@@H](CCCNC(=N)N)C(=O)N1CCC[C@@H]1C(=O)N[C@@H](CCCCN)C(=O)N[C@@H](Cc1ccccc1)C(=O)N[C@@H](C(C)C)C(=O)N[C@@H](C(C)C)C(=O)N2` [PLP-3, cyclo[RRRLCFVRPKFVVCVRRP]] the “MIC With Albumin 40 mg/mL” value (A. baumannii; strain ATCC 17978) was 4 µg/mL, the “MIC w/o Albumin” value (A. baumannii; strain ATCC 17978) was 1 µg/mL (≈ 0.441 µM) and the Folds (A. baumannii; strain ATCC 17978) was 2. The “MIC With Albumin 40 mg/mL” value (A. baumannii; strain CR17) was 2 µg/mL, the “MIC w/o Albumin” value (A. baumannii; strain CR17) was 1 µg/mL (≈ 0.441 µM) and the Folds (A. baumannii; strain CR17) was 1. The “MIC With Albumin 40 mg/mL” value (P. aeruginosa; strain ATCC 27853) was 8 µg/mL, the “MIC w/o Albumin” value (P. aeruginosa; strain ATCC 27853) was 2 µg/mL (≈ 0.882 µM) and the Folds (P. aeruginosa; strain ATCC 27853) was 2. The “MIC With Albumin 40 mg/mL” value (P. aeruginosa; strain R2) was 32 µg/mL, the “MIC w/o Albumin” value (P. aeruginosa; strain R2) was 4 µg/mL (≈ 1.76 µM) and the Folds (P. aeruginosa; strain R2) was 3.
